Assay results taken from patent US11547677B2, “Transmucosal delivery system for idebenone” (LTS LOHMANN THERAPIE-SYSTEME AG, priority 2017, dated 2023).
Where a name gives a salt, the structure may show the parent alone.

What was measured:
[1] = n-octanol/water; cited from earlier work
[2] = oral administration; cited from earlier work
[3] = Saturation concentration of idebenone in the inner, hydrophobic, phase (HPLC of supernatant); format: physicochemical; settings: in composition of the 2nd table (vitamin E, Polysorbate 80, methyl salicylate, eucalyptol, tributyl citrate, Brij S2)
Experimental: Idebenone is added in excess to the inner, hydrophobic, phase, so that even after relatively long stirring solid dregs of active ingredient are still present. Then the dregs are removed by centrifuging. The resulting supernatant contains idebenone in its saturation concentration. This is determined by analysis for example by means of HPLC. The saturation concentration of idebenone for an exemplified composition according to the invention was determined as follows. [table]

Row | SMILES | LogP [1] | idebenone metabolised in the first-pass metabolism [2] | saturation concentration ([3]; 4° C.) | saturation concentration ([3]; room temperature)
1 | CC12CCC(CC1)C(C)(C)O2 [EUC, eucalyptol] | LogP = 2.8 |  |  | 
2 | COC(=O)c1ccccc1O [MS, methyl salicylate] | LogP = 2.24 |  |  | 
3 | CCCCOC(=O)CC(O)(CC(=O)OCCCC)C(=O)OCCCC [TBC, tributyl citrate] | LogP = 4.7 |  |  | 
4 | COC1=C(OC)C(=O)C(CCCCCCCCCCO)=C(C)C1=O [idebenone, 2-(10-hydroxydecyl)-5,6-dimethoxy-3-methyl-cyclohexa-2,5-diene-1,4-dione] |  | more than 98% | 103 g/L | 145 g/L
